25 compounds from patent USRE38257E1, “Piperdine derivatives and hypotensives containing the same” (Ajinomoto Co., Inc., priority 1988, dated 2003) can be followed below.

In the test the test system is male spontaneously hypertensive rats. Put plainly: Decrease in systolic blood pressure in spontaneously hypertensive rats after intravenous bolus injection, indirect (tail-cuff) method. The conditions noted are these: for Decrease in systolic blood pressure (mmHg) time after administration (hour) 0.5: 0.5 hour after administration; for Decrease in systolic blood pressure (mmHg) time after administration (hour) 4: 4 hours after administration. The test is classed as in vivo, rat. As to the method: As test animals, four male spontaneously hypertensive rats (weight 400 to 440 g) that were sufficiently adapted for feeding and in which hypertension was confirmed were used.
Physiological saline aqueous solution containing 2.5% Nicolle and 2.5% ethanol of sample was intravenously administered by bolus injection at a dose of 1 ml per 1 kg of body weight. Systolic blood pressure after administration was measured by the indirect (tail-cuff) method.

The mark [1] stands for this setting: dose 10 mg/kg i.v. bolus, hydrochloride, 10 mg/kg.

Regarding `C1=Cc2ccccc2C(=C2CCN(Cc3cccnc3)CC2)c2ccccc21.Cl.Cl` [Example 162, 4-(5H-Dibenzo[a,d]cyclohepten-5-ylidene)-1-(3-Picolyl)piperidine dihydrochloride], for the setting “dose 10 mg/kg i.v. bolus”, the “Decrease in systolic blood pressure (mmHg) time after administration (hour) 0.5” value (shortened to “Decrease in systolic blood pressure … (hour) 0.5”) is given as −62 mmHg and the “Decrease in systolic blood pressure (mmHg) time after administration (hour) 4” value (“Decrease in systolic blood pressure … (hour) 4” below) was −3 mmHg.

Consider `COc1ccc(C2(CCCN3CCC(=C4c5ccccc5C=Cc5ccccc54)CC3)OCCO2)cc1OC.Cl` [Example 222], for which, under “dose 10 mg/kg i.v. bolus”, the “Decrease in systolic blood pressure … (hour) 0.5” value was −94 mmHg and the “Decrease in systolic blood pressure … (hour) 4” value is recorded as −5 mmHg.

`O=C(C1CCc2ccccc2C1)N1CCC(=C2c3ccccc3C=Cc3ccccc32)CC1` (centres unmarked) [Example 224, 4-(5H-Dibenzo[a,d]cyclohepten-5-ylidene)-1-(1,2,3,4-tetrahydro-2-naphthoyl)piperidine]: for the setting “dose 10 mg/kg i.v. bolus”, the “Decrease in systolic blood pressure … (hour) 0.5” value was −69 mmHg and the “Decrease in systolic blood pressure … (hour) 4” value is recorded as −61 mmHg.

In the case of `C(=Cc1ccccc1)CN1CCC(=C2c3ccccc3C=Cc3ccccc32)CC1.Cl` [Example 38, 1-Cinnamyl-4-(5H-dibenzo[a, d]cyclohepten-5-ylidene)piperidine hydrochloride], where the note is “dose 10 mg/kg i.v. bolus”, the “Decrease in systolic blood pressure … (hour) 0.5” value was −140 mmHg and the “Decrease in systolic blood pressure … (hour) 4” value is reported as −76 mmHg.

In the case of `COc1ccc(C(=O)NCCN2CCC(=C3c4ccccc4C=Cc4ccccc43)CC2)cc1OC.Cl` [Example 242, N-(2-(5H-Dibenzo[a,d]cyclohepten-5-ylidene)-1-piperidinyl)ethyl-3′,4′-dimethoxybenzamide hydrochloride], where the note is “dose 10 mg/kg i.v. bolus”, the “Decrease in systolic blood pressure … (hour) 0.5” value is given as −28 mmHg and the “Decrease in systolic blood pressure … (hour) 4” value came to 7 mmHg.

Regarding `CCOC(=O)CCCN1CCC(=C2c3ccccc3C=Cc3ccccc32)CC1.Cl` [Example 199, Ethyl 4-(4-(5H-dibanzo[a,d]cyclohepten-5-ylidene)-1-piperidinyl)butyrate hydrochloride], for the setting “dose 10 mg/kg i.v. bolus”, the “Decrease in systolic blood pressure … (hour) 0.5” value is given as −15 mmHg and the “Decrease in systolic blood pressure … (hour) 4” value was −24 mmHg.

As to `O=C(O)C(CCN1CCC(=C2c3ccccc3C=Cc3ccccc32)CC1)C1CCCCC1` (centres unmarked) [Example 238, 2-Cyclohexyl-4-(4-(5H-dibenzo[a,d]cyclohepten-5-ylidene)-1-piperidinyl)butyric acid], under “dose 10 mg/kg i.v. bolus”, the “Decrease in systolic blood pressure … (hour) 0.5” value is given as −14 mmHg and the “Decrease in systolic blood pressure … (hour) 4” value is −5 mmHg.

Regarding `Cl.c1ccc2c(c1)Oc1ccccc1C2=C1CCN(CCCCC2CCCCC2)CC1` [Example 181], under “dose 10 mg/kg i.v. bolus”, the “Decrease in systolic blood pressure … (hour) 0.5” value is recorded as −56 mmHg and the “Decrease in systolic blood pressure … (hour) 4” value was −27 mmHg.

As for `Cl.O=[N+]([O-])c1ccccc1C=CCN1CCC(=C2c3ccccc3C=Cc3ccccc32)CC1` [Example 230, 4-(5H-Dibenzo[a,d]cyclohepten-5-ylidene)-1-(2-nitrocinnamyl)piperidine hydrochloride], under “dose 3 mg/kg i.v. bolus”, the “Decrease in systolic blood pressure … (hour) 0.5” value is on record as −131 mmHg and the “Decrease in systolic blood pressure … (hour) 4” value is −91 mmHg.

`Cl.O=C(CCCN1CCC(=C2c3ccccc3C=Cc3ccccc32)CC1)c1ccc(F)cc1` [Example 125, 4-(4-(5H-Dibenzo[a,d]cyclohepten-5-ylidene)-1-piperidinyl)-4′-fluorobutyrophenone hydrochloride]: under “dose 10 mg/kg i.v. bolus”, the “Decrease in systolic blood pressure … (hour) 0.5” value is −93 mmHg and the “Decrease in systolic blood pressure … (hour) 4” value is on record as −14 mmHg.

With `Cl.O=[N+]([O-])c1ccccc1CCCCN1CCC(=C2c3ccccc3C=Cc3ccccc32)CC1` [Example 255, 4-(4-(5H-Dibenzo[a,d]cyclohepten-5-ylidene)-1-piperidinyl)-1-(2-nitrophenyl)butane hydrochloride], for the setting “dose 10 mg/kg i.v. bolus”, the “Decrease in systolic blood pressure … (hour) 0.5” value was −62 mmHg and the “Decrease in systolic blood pressure … (hour) 4” value worked out at 2 mmHg.

For the compound `Cl.N#CCCCN1CCC(=C2c3ccccc3C=Cc3ccccc32)CC1` [Example 166, 1-Cyano-4-[4-(5H-dibenzo[a,d]cyclohepten-5-ylidene)-1-piperidinyl)propane hydrochloride], under setting [1], the “Decrease in systolic blood pressure … (hour) 0.5” value was −45 mmHg and the “Decrease in systolic blood pressure … (hour) 4” value was determined as 6 mmHg.

Take `C1=Cc2ccccc2C(=C2CCN(CCCCC3CCCCC3)CC2)c2ccccc21.Cl` [Example 283, 4-(4-(4-(5H-Dibenzo[a,d]cyclohepten-5-ylidene)-1-piperidinyl)-1-butyl)cyclohexane hydrochloride]: under setting [1], the “Decrease in systolic blood pressure … (hour) 0.5” value is given as −112 mmHg and the “Decrease in systolic blood pressure … (hour) 4” value turned out to be 4 mmHg.

For the compound `C1=Cc2ccccc2C(=C2CCN(CCCSc3ccccc3)CC2)c2ccccc21.Cl` [Example 23, 3-(4-(5H-Dibenzo[a,d]cyclohepten-5-ylidene)-1-piperidinyl)-1-phenylthiopropane hydrochloride], where the note is “dose 10 mg/kg i.v. bolus”, the “Decrease in systolic blood pressure … (hour) 0.5” value is reported as −34 mmHg and the “Decrease in systolic blood pressure … (hour) 4” value was found to be 10 mmHg.

In the case of `Cl.O=[N+]([O-])c1ccccc1S(=O)(=O)NCCN1CCC(=C2c3ccccc3C=Cc3ccccc32)CC1` [Example 25, 4-(5H-Dibenzo[a,d]cyclohepten-5-ylidene)-1-(2-(2-nitrobenzenesulfonyl)aminoethyl)piperidine hydrochloride], for the setting “dose 10 mg/kg i.v. bolus”, the “Decrease in systolic blood pressure … (hour) 0.5” value is listed as −8 mmHg and the “Decrease in systolic blood pressure … (hour) 4” value was −7 mmHg.

For `Cl.Nc1ccc(C=CCN2CCC(=C3c4ccccc4C=Cc4ccccc43)CC2)cc1` [Example 231, 1-(4-Aminocinnamyl)-4-(5H-dibenzo[a,d]cyclohepten-5-ylidene)piperidine hydrochloride], where the note is “dose 3 mg/kg i.v. bolus”, the “Decrease in systolic blood pressure … (hour) 0.5” value is on record as −132 mmHg and the “Decrease in systolic blood pressure … (hour) 4” value is −115 mmHg.

As to `CCCCCCCCCCN1CCC(=C2c3ccccc3C=Cc3ccccc32)CC1.Cl` [Example 3, 1-Decyl-4-(5H-dibenzo[a,d]cyclohepten-5-ylidene)piperidine hydrochloride], where the note is “dose 3 mg/kg i.v. bolus”, the “Decrease in systolic blood pressure … (hour) 0.5” value is reported as −110 mmHg and the “Decrease in systolic blood pressure … (hour) 4” value is −22 mmHg.

On to `CC(=O)N1CCCCC1CCCN1CCC(=C2c3ccccc3C=Cc3ccccc32)CC1.Cl` (centres unmarked) [Example 294, 1-(N-Acetyl-2-piperidinyl)-3-(4-(5H-Dibenzo[a,d]cyclohepten-5-ylidene)-1-piperidinyl)propane hydrochloride], for which, for the setting “dose 3 mg/kg i.v. bolus”, the “Decrease in systolic blood pressure … (hour) 0.5” value is reported as −17 mmHg and the “Decrease in systolic blood pressure … (hour) 4” value is 7 mmHg.

For `CCOc1ccc(C(=O)CCCN2CCC(=C3c4ccccc4C=Cc4ccccc43)CC2)cc1OCC.Cl` [Example 194, 4-(4-(5H-Dibenzo[a,d]cyclohepten-5-ylidene)-1-piperidinyl)-3′,4′-diethoxybutyrophenone hydrochloride], where the note is “dose 10 mg/kg i.v. bolus”, the “Decrease in systolic blood pressure … (hour) 0.5” value is given as −59 mmHg and the “Decrease in systolic blood pressure … (hour) 4” value is on record as −17 mmHg.

Take `CC(=O)Nc1ccc2c(c1)CC(CN1CCC(=C3c4ccccc4C=Cc4ccccc43)CC1)C2.Cl` (centres unmarked) [Example 334, 5′-acetylamino-2-(4-(5H-Dibenzo[a,d]cyclohepten-5-ylidene)-1-piperidinyl)methylindan hydrochloride]: where the note is “dose 3 mg/kg i.v. bolus”, the “Decrease in systolic blood pressure … (hour) 0.5” value is −130 mmHg and the “Decrease in systolic blood pressure … (hour) 4” value was −93 mmHg.

For the compound `C1=Cc2ccccc2C(=C2CCN(CCCOC3CCCCO3)CC2)c2ccccc21.Cl` (centres unmarked) [Example 235, 3-(4-(5H-Dibenzo[a,d]cyclohepten-5-ylidene)-1-piperidinyl)-1-propyl(2-tetrahydropyranyl)ether hydrochloride], where the note is “dose 10 mg/kg i.v. bolus”, the “Decrease in systolic blood pressure … (hour) 0.5” value is −99 mmHg and the “Decrease in systolic blood pressure … (hour) 4” value is on record as −5 mmHg.

In the case of “2,6-Dimethyl-4-(4-(4-(5H-dibenzo[a,d]cyclohepten-5-ylidene)-1-piperidinyl)butyl)-5-methyl-1,4-dihydropyrydine-3,5-dicarboxylate hydrochloride [Example 285]”, for the setting “dose 10 mg/kg i.v. bolus”, the “Decrease in systolic blood pressure … (hour) 0.5” value is on record as −62 mmHg and the “Decrease in systolic blood pressure … (hour) 4” value is −7 mmHg.

`Cl.O=C(NCCN1CCCCC1=C1c2ccccc2C=Cc2ccccc21)c1ccc([N+](=O)[O-])cc1` [Example 237, N-(2-(5H-Dibenzo[a,d]cyclohepten-5-ylidene)-1-piperidinyl)ethyl-4-nitrobenzamide hydrochloride]: where the note is “dose 10 mg/kg i.v. bolus”, the “Decrease in systolic blood pressure … (hour) 0.5” value is listed as −65 mmHg and the “Decrease in systolic blood pressure … (hour) 4” value is on record as −14 mmHg.

Take `COc1cccc(C=CCN2CCC(=C3c4ccccc4C=Cc4ccccc43)CC2)c1OC.Cl` [Example 344, 4-(5H-Dibenzo[a,d]cyclohepten-5-ylidene)-1-(2,3-dimethoxycinnamyl)piperidine hydrochloride]: where the note is “dose 1 mg/kg i.v. bolus”, the “Decrease in systolic blood pressure … (hour) 0.5” value is listed as −123 mmHg and the “Decrease in systolic blood pressure … (hour) 4” value is −35 mmHg.

For `C1=Cc2ccccc2C(=C2CCN(CCCCCCC3CCCCC3)CC2)c2ccccc21.Cl` [Example 154, 1-Cyclohexyl-6-(4-(5H-dibenzo[a,d]cyclohepten-5-ylidene)-1-piperidinyl)hexane hydrochloride], under “dose 10 mg/kg i.v. bolus”, the “Decrease in systolic blood pressure … (hour) 0.5” value is recorded as −131 mmHg and the “Decrease in systolic blood pressure … (hour) 4” value was −105 mmHg.
